From US12121596B2, “Near infrared fluorescent dyes, formulations and related methods” (Washington University, priority 2019, dated 2024)
Positions of bridges follow the written chain, without caps; N, C: chain ends. Non-standard residues stand in square brackets, D forms with d. Residues, ends and D or L forms follow the SMILES beside them. *: point of attachment. X1 = CC1(C)C(/C=C/C=C/C=C/C=C2/N(CCC(=O)*)c3ccc4ccccc4c3C2(C)C)=[N+](CCC(=O)[O-])c2ccc3ccccc3c21

Experiments:
pANXA2 = pANXA2 (Homo sapiens, UniProt P07355); assay: Microscale thermophoresis (MST), pANXA2 binding; conditions: read-out: apparent Kd, pANXA2
Description: (§1) Recombinant proteins and antibodies. Recombinant annexin A2, annexin A2 with glutathione-S-transferase (GST) tag, annexin A1, and annexin A3 proteins were purchased from MyBioSource, Inc. (San Diego, CA, USA). Purified ANXA2 protein and purified pANXA2 protein were gifts from Dr. Gabriel Bimme (Beth Israel Deaconess Medical Center, Boston, MA). Rabbit monoclonal anti-annexin A2 antibody (D11G2, #8235), Rabbit monoclonal anti-Rab5 (C8B1, #3547), and rabbit monoclonal anti-Rab7 (D95F2, #936 7) primary antibodies were purchased from Cell Signaling Technology, Inc. (Danvers, MA, USA). Mouse monoclonal anti-β-actin 2A3 (sc-517582), mouse monoclonal anti-pANXA2 antibody (11.Tyr 24) (sc-135752), rabbit polyclonal anti-NOS2 (C-19, sc-649), rabbit polyclonal anti-ARG1 (H-52, sc-20150) antibodies, and protein A/G agarose were purchased from Santa Cruz Biotechnology, Inc. (Dallas, TX, USA). […]
(§2) MST was performed using the Monolith NT.115 (Nanotemper Technologies, Munich, Germany). […] Fluorescence was assessed in MST-2 buffer (50 mM Tris-HCl, pH 7.4; 150 mM NaCl; 10 mM MgCl2). […] The apparent Kd values were calculated from fragment concentration-dependent changes in normalized fluorescence (Fraction Bound) of LS301 after 5 seconds of thermophoresis based on mass action law using the MO Affinity Analysis v2.3 software.

ANXA2 = ANXA2 (Homo sapiens, UniProt P07355); assay: Microscale thermophoresis (MST), ANXA2 binding; conditions: read-out: apparent Kd, ANXA2
Description: as §1, §2

ANXA3 = molecular target: T1, ANXA3 (Homo sapiens, UniProt P12429); assay: Microscale thermophoresis (MST), ANXA3 binding; conditions: read-out: apparent Kd, ANXA3
T1 construct: purchased MyBioSource, Inc
T1 sequence (P12429 1-323): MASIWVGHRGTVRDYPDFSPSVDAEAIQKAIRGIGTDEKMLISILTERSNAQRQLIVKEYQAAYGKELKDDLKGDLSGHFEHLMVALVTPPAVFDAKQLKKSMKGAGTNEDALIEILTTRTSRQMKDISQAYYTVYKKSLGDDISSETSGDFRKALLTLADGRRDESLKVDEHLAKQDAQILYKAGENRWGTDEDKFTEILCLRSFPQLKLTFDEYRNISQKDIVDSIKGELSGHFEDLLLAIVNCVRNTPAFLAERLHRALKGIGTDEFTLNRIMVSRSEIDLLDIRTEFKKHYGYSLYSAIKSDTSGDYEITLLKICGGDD
Description: as §1, §2

[1] = tested on: cells expressing wild-type ANXA2 or mutant ANXA2 (Y23A); assay: LS301 internalization with insulin in cells expressing wild-type or mutant ANXA2 (Y23A); format: cell-based
Procedure: For LS301 cell internalization studies involving insulin treatment, cells were grown on Lab-Tek slides overnight. HEK 293T cells (or in some cases 4T1 cells) were maintained in DMEM medium supplemented with 10% fetal bovine serum and 100 units/mL penicillin. After DNA transfection, the HEK 293TAnxa2-WT-GFP and HEK 293TAnxa2-Y23A-GFP cells were maintained in Dulbecco's Modified Eagle's medium (DMEM) medium with 500 μg/mL G418, 10% fetal bovine serum (FBS), and 100 units/mL penicillin. The medium was changed, and cells were grown in serum-starved conditions overnight. Cells were then cultivated with or without 100 nM insulin for 4 h. Then 1 μM of LS301 was added to each sample to incubated for 4 hours or 24 hours at 37° C. Cells were imaged using an FV1000 confocal microscope, and the mean fluorescence intensities (Ex/Em=488/495 nm; Ex/Em=590/617 nm; Ex/Em=780/805-830 nm) were determined using the FV1000 software.

[2] = tested on: breast cancer patient-derived xenograft; assay: In vivo NIR imaging of tumor retention; design: species or system mice
Procedure: To establish the various tumor models, nude, Balb/c, or C57BL6 mice were injected with 10^5-10^7 tumor cells subcutaneously on unilateral or bilateral flanks. In some cases, spontaneous tumor models were used. Animals injected subcutaneously with saline served as sham tumor controls. For near-infrared imaging, 100 μL volumes of 60 μM LS301 or cypate in PBS were injected intravenously by lateral tail vein, and animals were imaged using a Pearl Small Animal Imager (LI-COR Biotechnology, Lincoln, NE, USA) at the indicated time points. In some experiments, probes were formulated in 1% albumin in PBS. Animals were shaved using commercially available hair removal equipment and products before imaging. For experiments involving further tissue analysis, animals were anesthetized with isoflurane and euthanized by cervical dislocation under anesthesia. Organs were harvested by surgical dissection. For quantitative organ biodistribution studies, individual regions of interest were drawn around each organ of interest, and fluorescence was quantified using the Pearl Small Animal Imager software.

tumor = assay: NIR contrast evaluation of DMSO and ethanol-based formulations; format: in vivo
Description: No difference in histology between the various solvents was seen.

Chain of pANXA2 (P07355 2-339 limits assumed): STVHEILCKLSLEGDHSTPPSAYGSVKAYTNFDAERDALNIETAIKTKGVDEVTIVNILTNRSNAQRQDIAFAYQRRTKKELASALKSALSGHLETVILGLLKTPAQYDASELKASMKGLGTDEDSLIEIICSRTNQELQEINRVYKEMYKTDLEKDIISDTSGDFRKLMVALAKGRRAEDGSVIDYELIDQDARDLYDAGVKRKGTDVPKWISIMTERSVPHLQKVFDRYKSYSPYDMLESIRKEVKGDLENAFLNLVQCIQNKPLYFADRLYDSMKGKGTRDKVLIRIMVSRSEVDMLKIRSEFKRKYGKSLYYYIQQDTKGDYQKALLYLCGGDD
Chain of ANXA2 (P07355 whole entry): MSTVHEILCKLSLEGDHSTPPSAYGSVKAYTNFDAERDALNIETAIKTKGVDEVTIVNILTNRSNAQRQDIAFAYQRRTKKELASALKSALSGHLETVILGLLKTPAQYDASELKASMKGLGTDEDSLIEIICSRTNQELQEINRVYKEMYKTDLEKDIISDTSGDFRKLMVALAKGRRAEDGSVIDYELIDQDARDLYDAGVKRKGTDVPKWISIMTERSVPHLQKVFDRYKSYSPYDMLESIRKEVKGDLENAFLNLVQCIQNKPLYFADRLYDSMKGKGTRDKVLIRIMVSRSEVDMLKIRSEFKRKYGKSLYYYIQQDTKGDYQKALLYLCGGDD

CC1(C)C(/C=C/C=C/C=C/C=C2/N(CCC(=O)N[C@@H]3CSSC[C@@H](C(=O)N[C@@H](CCCCN)C(=O)O)NC(=O)[C@@H]4CCCN4C(=O)[C@H](CO)NC(=O)[C@H](CC(=O)O)NC(=O)[C@H](CCCNC(=N)N)NC(=O)CNC3=O)c3ccc4ccccc4c3C2(C)C)=[N+](CCC(=O)[O-])c2ccc3ccccc3c21 [LS301, cypate-cyclic (DCys-Gly-Arg-Asp-Ser-Pro-Cys)-Lys-OH] (X1-[dC]GRDSPCK-OH; disulfide 1-7)
Kd (pANXA2): 0.075 ± 0.002 nM
Kd (ANXA2): 0.389 ± 0.015 nM
Kd (ANXA3): 6.13 ± 0.28 nM
cellular uptake of LS301, mutant ANXA2 (Y23A) cells ([1]; insulin stimulation): minimal LS301 uptake
cellular uptake of LS301, wild-type ANXA2 cells ([1]; stimulation with insulin): increased pANXA2 expression and cellular uptake of LS301
time remaining in the tumor lesion ([2]; breast cancer patient-derived xenograft): over 96 hours
tumor coverage ([2]; small tumors (<5 mm)): about 100%
tumor uptake compared to renal or hepatic clearance (tumor; 20% PEG400 solutions): increased tumor uptake
NIR contrast (tumor; in 20% PEG400): significantly increased contrast
clearance mechanism (tumor; in vivo): cleared via renal and hepatic mechanisms
